Like-named read-outs stand apart in the source and are kept apart here.
Legend:
2008 tumor xenografts = test: Effect of EGF on cisplatin toxicity against tumor xenografts in athymic mice; assay type: in vivo, athymic mice (nu/nu)
Method: For these studies, 3 to 4 week old female athymic mice (nu/nu) from BALB/c origin were used which were supplied by Harlan Sprague Dawley, Inc. (Indianapolis, Ind.). The mice were kept in a laminar flow hood at 28° C. and fed standard mouse diet and water ad libitum.
Tumor xenografts were established from 2008 cells by harvesting confluent cell cultures by trypsinization and resuspending the cells in RPMI 1640 medium at 2.5×10^7 cells per ml. From this suspension, 0.2 ml aliquots containing 5×10^6 cells were injected s.c. on each shoulder of the athymic mice. In each mouse, two tumors were followed and tumor volumes were determined using the formula (length×width^2)/2 (Giavazzi et al., Cancer Res. 46:1928 (1986) and Tomayko & Reynolds Cancer Chemother. Pharmacol. 24:148 (1989)).
In all groups, treatment was administered 24 hours after the inoculation with tumor cells.
Tumor growth of each tumor in each animal was expressed as plot of in(tumor volume) as a function of time. The regression line of the in(tumor volume) versus time plot was calculated by using the method of least squares. The intercept and slope were obtained and used to calculate the time each tumor required to reach an arbitrarily defined volume of 1 ml. This volume was chosen because most tumors in all treatment groups reached this endpoint. For comparisons between two groups the unpaired Student's T-test was used. […]

[1] = tested on: T-289 malignant melanoma cells; test: Colony forming assay, effect of EGF on cisplatin sensitivity; assay type: cell-based, human
Text: The following cell lines were used in these studies: 2008 human ovarian carcinoma (Disaia, et al., Am. J. Obstet. Gynecol. 114:978 (1972)), COLO 316 human ovarian carcinoma (Woods et al., Cancer Res. 39:4449 (1979)), a DDP resistant variant 2008/C13*, derived from the parent 2008 cell line (Andrews, et al., Cancer Res. 45:6250 (1985)), A549 non-small cell lung cancer (Lieber et al., Int. J. Cancer 17:62 (1976)), NCI-H520 squamous cell lung cancer (Brower et al., Cancer Res. 46: 798 (1986)), NCI-H596 adenosquamous lung cancer (Banks-Schlegel et al., Cancer Res. 45: 1187 (1985)), UMC 31 small cell lung cancer cells (Graziano et al., Genes, Chromosomes and Cancer 3: 283 (1991)), GLC4 small cell lung cancer cells (Zijlstra et al., Cancer Res. 47: 1780 (1987)), UMCC10b head and neck cancer cells (Krause et al., Arch. Otolayngol. 107: 703 (1981)), 5637 bladder cancer cells (Fogh et al., J. Natl. Cancer Inst. 58: 209 (1977)), MIA PaCa-2 pancreatic cancer cells (Yunis et al., Int. J. Cancer 19:128 (1977)), Du 145 prostate cancer (Mickey Cancer Res. 37: 4049 (1977)) , COLO 205 colon cancer (Semple et al., Cancer Res. 38:1345 (1978)), KB-3-1 cervix cancer (Akiyama et al., Somat. Cell Mol. Genet. 11: 117 (1985)) , MCF-7 breast cancer (Soule et al., J. Natl. Cancer Inst. 51:1409 (1973)), A431 epidermoid carcinoma of the skin (Giard et al., J. Natl. Cancer Inst. 51: 1417 (1973)) and T-289 melanoma cells (Taetle et al., Cancer (Philadelphia) 60: 1836 (1987)). The human cell line 2008 was established from a patient with a serous cystadenocarcinoma of the ovary. The 8-fold DDP resistant cell line 2008/C13* was generated by 13 monthly selections with […], followed by chronic exposure to stepwise increasing concentrations of DDP, from 0.25 to 5 uM. A resistant subline, designated 2008/C13*5, was obtained by monthly selections with 1 μM DDP. The cells were grown on tissue culture dishes in a humidified incubator at 37° C. and 5% CO2 atmosphere. Cells were grown in either of the following types of media: RPMI 1640, RPMI 1640 plus HITES buffer, DMEM low glucose, or DMEM high glucose supplemented with 5% to 10% heat inactivated fetal calf serum and 2 mM glutamine.
Colony forming assays were used to assess the effect of each drug on the sensitivity of various tumor cell lines to cytotoxic agents (Andrews, et al., Chem.-Biol. Interact 65:51-58 (1988)). For assays performed on plastic tissue culture dishes, five ml of suspended cells were plated on 60-mm polystyrene tissue culture dishes (Corning Glass Works, Corning, N.Y.). Cells were allowed to attach overnight, then 10 μl of stock drug solution was added to triplicate plates at each drug concentration. Control plates received diluent alone. After 1 h, the drug-containing medium was aspirated and replaced with drug free medium. Plates were incubated in humidified 5% CO2 air, and after 14 days plates were fixed with methanol and stained with Giemsa. Colonies of over 60 cells were counted macroscopically.
The drug containing media was removed and cells were resuspended in 5 ml of complete medium containing 0.36% low melting-temperature agarose at 37° C. The cell suspension was mixed well and then aliquotted at 1 ml per dish in triplicate onto prepared 35 mm dishes containing a basement layer of solidified 1% agarose. The cell-containing layer was allowed to solidify at 4° C. for 10 minutes, and the dishes were incubated at 37° C. in humidified 5% CO2. Colonies greater than 125 um were counted after 5 days.
^a Dose response curves were determined by colony forming assay. Cell

2008 cells = test: Cellular accumulation of [195mPt]DDP; assay type: cell-based, human; conditions: 60 min
Method: Cell-associated ^195m Pt was determined by as a measure of DDP accumulation. For DDP accumulation studies, subconfluent monolayers were treated with 37° C. RPMI 1640 medium containing 20 μM [^195m Pt]-DDD. The dishes were immediately returned to the incubater. After 1 h incubation, the medium was aspirated, the cells were washed rapidly with 4° C. PBS 4 times. Two ml of 1N NaOH was added and the cells allowed to digest overnight. A forty μl aliquot was used for determination of protein content by the method of Bradford (Bradford, Anal. Biochem. 72:248-254 (1976)), and the remaining […] was counted in glass tubes on a Trak 1191 gamma counter (Tracer Analytic, EIK Grove Village, Ill.). Columns represent the mean values of 3 experiments performed with duplicate cultures. The bars represent the standard deviation.
Cultured 2008 cells were treated concurrently with [^195m Pt]DDP and TPA for 60 min. A vehicle control consisting of an appropriate dilution of acetone was run concurrently. […] Cells treated with medium alone contained 140±13 pmol/mg of protein, whereas those treated with the acetone control contained 141±7 pmol/mg of protein, and those treated with TPA contained 143±21 pmol/mg of protein.

N.N.[Cl][Pt][Cl] [cisplatin]
final tumor volume (2008 tumor xenografts; 1 mg/kg EGF s.c. and/or 15 mg/kg cisplatin i.p., 24 hours after inoculation): significantly reduced relative to control tumors
additional time required for tumors to reach a volume of 1 ml vs control tumors (2008 tumor xenografts; 15 mg/kg cisplatin i.p.): 6 days
Dose modifying factor ([1]; ratio of IC50 in control and EGF-treated cells): 0.8
IC50 ([1]; read-out: IC50 in absence of EGF, cisplatin 1 h, no EGF): 2020 nM
IC50 ([1]; read-out: IC50 in presence of EGF, 10 nM EGF and cisplatin concurrently for 1 h): 2490 nM
cellular accumulation of [195mPt]DDP (2008 cells; medium alone): 140±13 pmol/mg of protein
cellular accumulation of [195mPt]DDP (2008 cells; treated concurrently with TPA): 143±21 pmol/mg of protein
